Reference: patent US8507411B2, “Neoglycorandomization and digitoxin analogs” (priority 2004, dated 2013)
pIC50: −log10 of the molar value. Read-outs that look alike come from different tables or passages of the source.

Key:
NmuMG = test: cells; type: cell-based, mouse
Outline: (§1)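 Viability read-out: esterase conversion of calcein AM to fluorescent calcein in live cells (ex 485, em 535 nm), 30 min at 37 °C after 72 h compound exposure. Human lines grown in RPMI 1640/10% FBS; NmuMG in DMEM/10% FBS with 10 μg/ml insulin. IC50s fit with variable Hill slope.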

HCT-116 = test: High-throughput calcein AM cytotoxicity assay, HCT-116; type: cell-based, human
Excerpt: (§2) Standard errors are depicted with error bars.

Na+/K+-ATPase [1] = biological target: Na+/K+-ATPase (Cricetulus griseus, UniProt A0A8C2N4Z0); test: Non-radioactive rubidium ion uptake assay, CHO-K1 cells; type: cell-based, hamster; details: read-out: Na+/K+-ATPase Inhibition IC50
Method: (§3) Na/K-ATPase Assays. Inhibition of Na^+/K^+-ATPase on HEK-293 cells and CHO-K1 cells by the library hits was determined by Aurora Biomed, Inc. using a high-throughput non-radioactive rubidium ion uptake assay. Experiments were conducted in duplicate using three different concentrations. Within each experiment, percent inhibition values at the three concentrations were expressed as the percent reduction of the maximum absorption signal observed for a 0 nM control. IC50 values were determined using the following formula: IC50=[(50−low %)/(high %−low %)]×(high conc.−low conc.)+low conc.
(§4) To assess how these structural modifications impact the ability of library members to inhibit Na^+/K^+-ATPases, a fundamental activity of cardiac glycosides (Paula, S., et al., (2005) Biochemistry 44, 498-510), library hits 5β, 15β, 23β, 27β, 33β, 40β, and digitoxin (1) were submitted to a non-radioactive rubidium uptake assay to gauge Na^+/K^+-ATPase inhibition in both […] human embryonic kidney cells and CHO-K1 hamster ovary cells (Gill, S. et al., (2004) ASSAY and Drug Development Technologies 2, 535-542).

NCI-H460 = test: High-throughput calcein AM cytotoxicity assay, NCI-H460; type: cell-based, human
Excerpt: as §2

SK-OV-3 = test: cells; type: cell-based, human
Outline: as §1

SF-268 = test: cells; type: cell-based, human
Outline: as §1

NCI/ADR-RES = test: cells; type: cell-based, human
Outline: as §1

MCF7 = test: High-throughput calcein AM cytotoxicity assay, MCF7; type: cell-based, human
Excerpt: as §2

A549 = test: High-throughput calcein AM cytotoxicity assay, A549; type: cell-based, human
Excerpt: as §2

Du145 = test: High-throughput calcein AM cytotoxicity assay, Du145; type: cell-based, human
Excerpt: as §2

Na+/K+-ATPase [2] = biological target: T1, Na+/K+-ATPase (Homo sapiens, UniProt P05023); test: Non-radioactive rubidium ion uptake assay, HEK-293 cells; type: cell-based; details: read-out: Na+/K+-ATPase Inhibition IC50
T1 construct: endogenous in cells; host or cells: HEK-293
Method: as §3, §4

Hep3B = test: High-throughput calcein AM cytotoxicity assay, Hep3B; type: cell-based, human
Excerpt: as §2

[3] = test system: nine human cancer cell lines and a mouse mammary normal epithelial control line; test: High-throughput calcein AM cytotoxicity assay, whole cell line panel; details: cell line panel, 72 h, calcein AM
Excerpt: In the assay, live cells were distinguished by the presence of a ubiquitous intracellular enzymatic activity which converts the non-fluorescent cell-permeable molecule calcein AM to the intensely fluorescent molecule calcein, which is retained within live cells. The IC50 value for each library member represents at least six replicates of dose-response experiments conducted over five concentrations using two-fold dilutions. […] Standard errors are depicted with error bars. Numerical values and corresponding error values can be found in Table 4. Du145: […]; MCF7: human breast carcinoma; HCT-116: human colon carcinoma, Hep3B: human liver carcinoma; SF-268: human CNS glioblastoma; SK-OV-3: human ovary adenocarcinoma; NCI-H460: human lung carcinoma; A549: human lung adenocarcinoma; NCI/ADR-RES: human breast carcinoma; NmuMG: mouse mammary normal epithelial.
Cell Culture: All cell lines except NmuMG were maintained in RPMI 1640 medium from InVitrogen (Cat No. 11875-085) supplemented with 10% w/v fetal bovine serum (FBS) from ICN (Cat No. 2916154) and penicillin-streptomycin (PS) (100 U/mL and 100 μg/mL) from InVitrogen (Cat No. 15140-122). NmuMG cells were maintained in DMEM medium from InVitrogen (Cat No. 11965-084) supplemented with 10% w/v fetal bovine serum (FBS) from ICN (Cat No. 2916154), 10 μg/ml insulin (InVitrogen Cat No 12585-014), and penicillin-streptomycin (PS) (100 U/mL and 100 μg/mL) from InVitrogen (Cat No. 15140-122). Cells were harvested by trypsinization using 0.25% w/v trypsin and 0.1% w/v EDTA from InVitrogen (Cat No. 15-050-057) and then counted in a hemocytometer in duplicate with better than 10% agreement in field counts. Cells were plated at a cell density of 10,000-15,000 cells/well of each Corning Costar 96-well black tissue culture treated microtiter plate (Fisher Cat No. 07-200-627). Cells were grown for 1 h at 37° C., with 5% CO2 in a humidified incubator to allow cell attachment to occur before compound addition.
Library Member Handling and Preparation for Cytotoxicity Assays: Library members were stored at −20° C. under dessicating conditions before the assay. Library member stocks (100×) were prepared in Corning Costar polypropylene 96-well V-bottom polypropylene microtiter plates (Fisher Cat No. 07-200-695). Five serial 1:2 dilutions were made with anhydrous DMSO at 100× the final concentration used in the assay.
Library Member Addition: The library member-containing plates were diluted 1:10 with complete cell culture media. The 10× stocks (10 μL) were added to the attached cells using a Biomek FX liquid handler (Beckman-Coulter). Library member stocks (10 μL) were added to 90 μL of cells in each plate to insure full mixing of stocks with culture media using a Beckman FX liquid handler with 96-well head.
Determination of Cytotoxicity: Cells were incubated with the library members for 72 h before fluorescence reading. Test plates were removed from the incubator and washed 1× in sterile PBS to remove serum containing calcium esterases. Calcein AM reagent (30 μL, […]) was added and the cells were incubated for 30 min at 37° C. Plates were read for emission using a fluorescein filter (excitation 485 nm, emission 535 nm).
IC50 Calculation: For each library member, at least six dose response experiments were conducted. […] To calculate IC50, percent inhibitions were plotted as a function of log [concentration] and then fit to a four-parameter logistic model that allowed for a variable Hill slope using XLfit 4.1.
Cytotoxicity Assays. All cell lines except NmuMG were maintained in RPMI 1640 medium supplemented with 10% w/v fetal bovine serum (FBS) and penicillin-streptomycin (PS) (100 U/mL and 100 μg/mL).

[4] = Hydrolytic stability of the neoglycosidic linkage; type: physicochemical; details: 3 mM in 1:1 DMSO/buffer, one month
Method: FIG. 4 is a graphic representation of the results of studies on the hydrolytic stability of neoglycoside 4α. The chemical stability of the neoglycosidic linkage was examined by monitoring the hydrolytic degradation of neoglycoside 4α in a 3 mM solution of 1:1 DMSO/buffer. Three buffers were used, 50 mM acetate buffer (pH 5), 50 mM phosphate buffer (pH 7), and 50 mM Tris buffer (pH 9). Neoglycoside degradation was monitored by reverse phase HPLC on an Agilent Zorbax Eclipse XDB-C8 column (4.6×150 mm) with a flow rate of 0.8 mL min^−1 and a linear gradient of 49% CH3OH/H2O to 89% CH3OH/H2O over 20 min. At t=0, neoglycoside 4α in 500 μL DMSO was added to 500 μL buffer, and the resulting solution was vortexed for 40 sec, then immediately injected onto the HPLC. Peak areas at 220 nm were used to estimate the neoglycoside/aglycon ratio, which is reported as “percent neoglycoside remaining” [Aneoglycoside/(Aneoglycoside+Aaglycon)] for each of the three buffer systems.
Hydrolytic Stability of 4α. The chemical stability of the neoglycosidic linkage was examined by monitoring the hydrolytic degradation of neoglycoside 4α in a 3 mM solution of 1:1 DMSO/buffer. Three buffers were used, 50 mM acetate buffer (pH 5), 50 mM phosphate buffer (pH 7), and 50 mM Tris buffer (pH 9). Neoglycoside degradation was monitored by reverse phase HPLC on an Agilent Zorbax Eclipse XDB-C8 column (4.6×150 mm) with a flow rate of 0.8 mL min^−1 and a linear gradient of 49% CH3OH/H2O to 89% CH3OH/H2O over 20 min. At t=0, neoglycoside 4α in 500 μL DMSO was added to 500 μL buffer, and the resulting solution was vortexed for 40 sec, then immediately injected onto the HPLC. Peak areas at 220 nm were used to estimate the neoglycoside/aglycon ratio, which is reported as “percent neoglycoside remaining” [Aneoglycoside/(Aneoglycoside+Aaglycon)] for each of the three buffer systems (see FIG. 4).
The chemical stability of the neoglycosidic linkage was examined by monitoring the hydrolytic degradation of neoglycoside 4α in a 3 mM solution of 1:1 DMSO/buffer using buffers at three different pHs.

[5] = NmuMG mouse mammary normal epithelial control line, read-out: IC50, NmuMG
[6] = HCT-116 cells, read-out: IC50, HCT-116
[7] = NCI-H460 cells, read-out: IC50, NCI-H460
[8] = SK-OV-3 cells, read-out: IC50, SK-OV-3
[9] = SF-268 cells, read-out: IC50, SF-268
[10] = NCI/ADR-RES cells, read-out: IC50, NCI/ADR-RES
[11] = MCF7 cells, read-out: IC50, MCF7
[12] = A549 cells, read-out: IC50, A549

CON(C1CCC2(C)C(CCC3C2CCC2(C)C(C4=CC(=O)OC4)CCC32O)C1)C1OC(CO)C(O)C(O)C1O [40β, D-taloside]
pIC50 (NmuMG; [5]): 6.32 | pIC50 (HCT-116; [6]): 5.72 | pIC50 (Na+/K+-ATPase [1]): 3.74 | pIC50 (NCI-H460; [7]): 6.10 | pIC50 (SK-OV-3; [8]): 6.31 | pIC50 (SF-268; [9]): 5.89 | pIC50 (NCI/ADR-RES; [10]): 5.72 | pIC50 (MCF7; [11]): 5.85 | pIC50 (A549; [12]): 6.39 | pIC50 (Du145; Du145, 72 h, calcein AM, read-out: IC50): 6.70 | pIC50 (Na+/K+-ATPase [2]): < 3.70 | pIC50 (Hep3B; Hep3B, 72 h, calcein AM, read-out: IC50): 6.74

CON(C1CCC2(C)C(CCC3C2CCC2(C)C(C4=CC(=O)OC4)CCC32O)C1)C1OCC(O)C(O)C1O [15β, D-lyxoside]
pIC50 (NmuMG; Mus musculus, read-out: IC50, NmuMG): 7.16 | pIC50 (HCT-116; Homo sapiens, HCT-116, HCT-116 cells, read-out: IC50, HCT-116): 6.77 | pIC50 (NCI-H460; Homo sapiens, NCI-H460, NCI-H460 cells, read-out: IC50, NCI-H460): 7.05 | pIC50 (SK-OV-3; Homo sapiens, SK-OV-3, read-out: IC50, SK-OV-3, SK-OV-3 cells): 6.80 | pIC50 (SF-268; Homo sapiens, SF-268, read-out: IC50, SF-268, SF-268 cells): 7.05 | pIC50 (NCI/ADR-RES; Homo sapiens, NCI/ADR-RES, read-out: IC50, NCI/ADR-RES, NCI/ADR-RES cells): 7.12 | pIC50 (MCF7; Homo sapiens, MCF7, MCF7 cells, read-out: IC50, MCF7): 6.64 | pIC50 (A549; Homo sapiens, A549, A549 cells, read-out: IC50, A549): 6.85 | cytotoxicity (in words) [3]: significantly more potent than digitoxin against some cell lines | pIC50 (Du145; Homo sapiens, DU-145, Du145 cells, read-out: IC50, Du145): 7.15 | pIC50 (Na+/K+-ATPase [2]): < 3.52 | pIC50 (Hep3B; Homo sapiens, Hep3B, Hep 3B cells, read-out: IC50, Hep 3B): 7.05

D-arabinoside [33β]
pIC50 (NmuMG; [5]): 6.92 | pIC50 (HCT-116; [6]): 6.44 | pIC50 (Na+/K+-ATPase [1]): 3.77 | pIC50 (NCI-H460; [7]): 6.48 | pIC50 (SK-OV-3; [8]): 6.33 | pIC50 (SF-268; [9]): 6.80 | pIC50 (NCI/ADR-RES; [10]): 6.91 | pIC50 (MCF7; [11]): 6.52 | pIC50 (A549; [12]): 6.47 | cytotoxicity (in words) [3]: closely mimicked this activity | pIC50 (Du145; Du145 cells, read-out: IC50, Du145): 6.77 | pIC50 (Na+/K+-ATPase [2]): < 3.52 | pIC50 (Hep3B; Hep 3B cells, read-out: IC50, Hep 3B): 6.59

CON([C@@H]1CC[C@@]2(C)[C@H](CC[C@@H]3[C@@H]2CC[C@]2(C)[C@@H](C4=CC(=O)OC4)CC[C@]32O)C1)[C@@H]1O[C@H](CO)[C@@H](O)[C@H](O)[C@H]1O [4α, D-glucoside]
pIC50 (NmuMG; NmuMG cells (mouse mammary normal epithelial control line), read-out: IC50): < 4.60 | hydrolytic stability ([4]; acidic conditions (pH 5)): slowly hydrolyzed | hydrolytic stability ([4]; neutral or basic conditions (pH 7, pH 9)): completely stable | pIC50 (HCT-116; HCT-116 cells, read-out: IC50): < 4.60 | pIC50 (NCI-H460; NCI-H460 cells, read-out: IC50): < 4.60 | pIC50 (SK-OV-3; SK-OV-3 cells, read-out: IC50): < 4.60 | pIC50 (SF-268; SF-268 cells, read-out: IC50): < 4.60 | pIC50 (NCI/ADR-RES; NCI/ADR-RES cells, read-out: IC50): < 4.60 | pIC50 (MCF7; MCF7 cells, read-out: IC50): < 4.60 | pIC50 (A549; A549 cells, read-out: IC50): < 4.60 | pIC50 (Du145; Du145 cells, read-out: IC50): < 4.60 | pIC50 (Hep3B; Hep 3B cells, read-out: IC50): < 4.60
